Among the data in ChEMBL document CHEMBL2406948, “Skeletal rearrangement of seven-membered iminosugars: synthesis of (-)-adenophorine, (-)-1-epi-adenophorine and derivatives and evaluation as glycosidase inhibitors” (Bioorg Med Chem, 2013) are inhibition, IC50 and Ki values, retold here.

pIC50, pKi: −log10 of the molar value.

Test [1] addresses Alpha-galactosidase (Coffea arabica) (UniProt Q42656). The test is described as follows: Inhibition of coffee bean alpha-galactosidase at 1000 uM.
The target in test [2] is Oligo-1,6-glucosidase IMA1 (Saccharomyces cerevisiae S288c) (UniProt P53051). In words: Inhibition of yeast alpha-glucosidase at 1000 uM.
Test [3] concerns the target T1, Glucosylceramidase (Bos taurus) (UniProt Q2KHZ8).
T1 sequence (whole entry): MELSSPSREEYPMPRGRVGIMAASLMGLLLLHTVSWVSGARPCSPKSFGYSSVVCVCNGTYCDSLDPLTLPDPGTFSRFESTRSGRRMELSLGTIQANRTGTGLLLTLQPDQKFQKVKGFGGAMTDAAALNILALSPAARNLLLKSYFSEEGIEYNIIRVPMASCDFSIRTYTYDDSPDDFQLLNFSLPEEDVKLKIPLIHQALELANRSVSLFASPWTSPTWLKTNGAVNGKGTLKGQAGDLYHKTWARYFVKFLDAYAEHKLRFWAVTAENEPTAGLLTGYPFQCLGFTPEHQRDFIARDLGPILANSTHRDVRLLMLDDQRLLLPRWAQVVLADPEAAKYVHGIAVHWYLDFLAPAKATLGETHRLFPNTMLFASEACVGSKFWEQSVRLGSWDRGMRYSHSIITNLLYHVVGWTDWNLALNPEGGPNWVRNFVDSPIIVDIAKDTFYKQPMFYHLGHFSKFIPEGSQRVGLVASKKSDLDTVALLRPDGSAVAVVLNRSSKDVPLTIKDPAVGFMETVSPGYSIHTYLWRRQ
The test is described as follows: Inhibition of bovine liver beta-glucosidase at 1000 uM.

Another test relates to Canavalia ensiformis. In words: Inhibition of jack beans alpha-mannosidase at 1000 uM.
Test [4] is described as follows: Inhibition of rice alpha-glucosidase. Also on record: species or system Oryza sativa.
In test [5] the target is T2, Uncharacterized protein (Sus scrofa) (UniProt I3LIR5).
T2 sequence (whole entry): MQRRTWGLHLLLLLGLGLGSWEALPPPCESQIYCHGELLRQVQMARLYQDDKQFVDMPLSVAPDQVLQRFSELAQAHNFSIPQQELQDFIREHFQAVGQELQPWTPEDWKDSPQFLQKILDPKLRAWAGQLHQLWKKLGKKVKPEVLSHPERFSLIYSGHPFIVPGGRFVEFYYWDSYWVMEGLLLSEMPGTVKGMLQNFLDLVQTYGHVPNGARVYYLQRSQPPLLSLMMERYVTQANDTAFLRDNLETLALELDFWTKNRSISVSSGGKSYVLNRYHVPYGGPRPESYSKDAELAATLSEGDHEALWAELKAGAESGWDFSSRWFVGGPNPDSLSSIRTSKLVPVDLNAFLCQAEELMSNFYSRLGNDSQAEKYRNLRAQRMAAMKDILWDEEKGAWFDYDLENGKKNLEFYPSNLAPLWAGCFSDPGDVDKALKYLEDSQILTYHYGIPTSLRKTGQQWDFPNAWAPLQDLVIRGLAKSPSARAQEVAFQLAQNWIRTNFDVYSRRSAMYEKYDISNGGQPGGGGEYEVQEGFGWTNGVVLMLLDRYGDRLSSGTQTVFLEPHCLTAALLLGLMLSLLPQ
The test is described as follows: Inhibition of pig kidney alpha, alpha trehalase at 1000 uM.

In the next test the test system is Penicillium decumbens. In words: Inhibition of Penicillium decumbens alpha-L-rhamnosidase at 1000 uM.
The target of test [6] is T3, Tissue alpha-L-fucosidase (Bos taurus) (UniProt Q2KIM0).
T3 sequence (whole entry): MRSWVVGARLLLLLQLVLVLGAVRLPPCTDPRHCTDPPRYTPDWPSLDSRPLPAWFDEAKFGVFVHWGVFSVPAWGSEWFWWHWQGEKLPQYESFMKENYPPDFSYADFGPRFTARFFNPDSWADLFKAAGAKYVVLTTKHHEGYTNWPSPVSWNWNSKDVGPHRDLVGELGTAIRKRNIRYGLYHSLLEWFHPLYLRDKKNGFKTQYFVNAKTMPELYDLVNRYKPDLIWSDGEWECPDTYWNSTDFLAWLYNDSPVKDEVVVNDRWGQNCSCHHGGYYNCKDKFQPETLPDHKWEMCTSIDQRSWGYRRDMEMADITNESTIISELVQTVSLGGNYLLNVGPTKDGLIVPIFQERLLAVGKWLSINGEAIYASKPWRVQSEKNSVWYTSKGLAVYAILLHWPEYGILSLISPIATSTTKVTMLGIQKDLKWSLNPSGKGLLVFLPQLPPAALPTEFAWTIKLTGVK
The test is described as follows: Inhibition of bovine kidney alpha-L-fucosidase at 1000 uM.

The species named for another test is Rattus norvegicus. In words: Inhibition of rat intestinal maltase alpha-glucosidase at 1000 uM.
The target of another test is T4, Beta-galactosidase (Bos taurus, UniProt Q58D55).
T4 sequence (Q58D55 whole entry): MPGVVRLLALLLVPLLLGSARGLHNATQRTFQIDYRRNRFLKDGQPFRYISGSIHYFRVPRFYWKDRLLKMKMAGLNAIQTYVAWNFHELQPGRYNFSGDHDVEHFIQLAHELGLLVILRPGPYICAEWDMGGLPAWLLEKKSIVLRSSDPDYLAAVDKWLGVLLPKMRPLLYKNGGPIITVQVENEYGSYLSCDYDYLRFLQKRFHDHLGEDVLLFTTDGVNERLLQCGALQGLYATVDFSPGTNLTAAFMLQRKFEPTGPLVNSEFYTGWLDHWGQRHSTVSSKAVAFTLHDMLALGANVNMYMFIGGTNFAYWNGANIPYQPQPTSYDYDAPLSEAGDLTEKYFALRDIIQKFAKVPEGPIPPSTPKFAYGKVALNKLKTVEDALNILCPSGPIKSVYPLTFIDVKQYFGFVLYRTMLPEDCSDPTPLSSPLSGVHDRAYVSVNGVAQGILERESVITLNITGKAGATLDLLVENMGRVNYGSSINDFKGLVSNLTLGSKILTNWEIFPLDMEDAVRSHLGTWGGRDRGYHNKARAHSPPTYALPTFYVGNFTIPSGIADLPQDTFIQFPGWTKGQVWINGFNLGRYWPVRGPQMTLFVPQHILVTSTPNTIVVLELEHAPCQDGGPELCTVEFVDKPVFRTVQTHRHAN
The test is described as follows: Inhibition of bovine liver beta-galactosidase.

The test system of the next test is Prunus dulcis. In words: Inhibition of almond beta-glucosidase at 1000 uM.
In test [7] the test system is Aspergillus niger. In words: Inhibition of Aspergillus niger beta-glucosidase at 1000 uM.
Test [8] deals with Aspergillus niger. In words: Inhibition of Aspergillus niger amyloglucosidase at 1000 uM.
Another test has as its system Helix pomatia. The test is described as follows: Inhibition of snail beta-mannosidase at 1000 uM.
Test [9] has as its target T5, Tissue alpha-L-fucosidase (Bos taurus, UniProt Q2KIM0).
T5 sequence (Q2KIM0 whole entry): T3 sequence (whole entry)
In words: Inhibition of bovine kidney alpha-L-fucosidase.

As a reminder, the inhibition is the share of the control response that was lost under treatment. Usually pIC50 stands for the IC50 on a negative log10 scale, so that one unit is a factor of ten. The low end stands for a large IC50, the high end for a small IC50. One may read the pKi as the Ki on a negative log10 scale, so that one unit is a factor of ten. Read a high pKi as a small Ki.

Sequence of Oligo-1,6-glucosidase IMA1 (Saccharomyces cerevisiae S288c) (P53051 whole entry): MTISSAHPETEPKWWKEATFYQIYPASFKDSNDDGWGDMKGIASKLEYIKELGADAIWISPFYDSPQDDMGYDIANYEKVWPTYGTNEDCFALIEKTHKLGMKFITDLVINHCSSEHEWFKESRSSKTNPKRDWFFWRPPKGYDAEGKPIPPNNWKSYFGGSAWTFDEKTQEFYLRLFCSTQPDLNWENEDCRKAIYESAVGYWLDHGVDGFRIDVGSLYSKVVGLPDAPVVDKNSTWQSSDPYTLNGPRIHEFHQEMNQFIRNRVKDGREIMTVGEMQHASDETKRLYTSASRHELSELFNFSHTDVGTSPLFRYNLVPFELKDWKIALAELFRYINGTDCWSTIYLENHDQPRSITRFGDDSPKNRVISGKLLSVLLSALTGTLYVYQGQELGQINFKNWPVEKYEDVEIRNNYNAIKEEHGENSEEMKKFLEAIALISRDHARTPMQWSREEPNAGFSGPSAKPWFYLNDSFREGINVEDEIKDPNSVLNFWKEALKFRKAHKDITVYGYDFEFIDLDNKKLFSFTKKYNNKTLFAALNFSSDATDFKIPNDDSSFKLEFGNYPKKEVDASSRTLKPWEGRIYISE
Sequence of Alpha-galactosidase (Coffea arabica) (Q42656 16-378 limits assumed): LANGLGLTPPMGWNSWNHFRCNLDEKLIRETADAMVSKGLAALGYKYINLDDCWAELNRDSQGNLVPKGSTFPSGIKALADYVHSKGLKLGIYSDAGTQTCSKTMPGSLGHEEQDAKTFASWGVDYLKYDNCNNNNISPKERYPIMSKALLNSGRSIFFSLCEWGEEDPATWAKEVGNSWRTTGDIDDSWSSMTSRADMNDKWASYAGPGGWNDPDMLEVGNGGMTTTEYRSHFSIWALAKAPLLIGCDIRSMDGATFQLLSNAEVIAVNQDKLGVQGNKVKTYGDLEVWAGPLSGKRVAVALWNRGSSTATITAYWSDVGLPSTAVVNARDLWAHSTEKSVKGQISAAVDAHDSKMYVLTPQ

As to `CCC[C@@H]1NC[C@@H](O)[C@@H](O)[C@H](O)[C@H]1O`, the inhibition in test [1] stood at 46%; in test [2], 0%; in test [3] it was 6%; in the test with Canavalia ensiformis, 1.6%; in test [5], 0%; with Penicillium decumbens it was 14.8%. The inhibition was 0% in test [6]; 0% in the test filed under Rattus norvegicus; 0% in the test with Prunus dulcis; 9.1% with Aspergillus niger [7]; 0% with Aspergillus niger [8]; 3.6% in the test with Helix pomatia. The negative logarithm of the IC50 (pIC50) is 3.08 in test [4] and 3.27 against Beta-galactosidase.
For `O[C@H]1[C@H](O)[C@@H](O)CNC[C@H]1O`, the negative-log Ki (pKi) in [9] was 5.34.
